Test results published in patent publication US12404244B2, “Pan-KIT kinase inhibitor having quinoline structure and application thereof” (Tarapeutics Science Inc., priority 2018, dated 2025).

Tests used:
Format in all cases: in vivo
Settings in all cases: oral, every day
[1] = test system: GIST-T1-T670I mouse tumor model; assay: Tumor-grafted mouse model established with GIST-T1-T670I cells
Experimental: (§1) In this example Compound 1 and Compound 2 were respectively tested in TEL-cKIT/T670I-BaF3, TEL-cKIT/Y823D-BaF3, TEL-cKIT/D820G-BaF3 and GIST-T1-T670I mouse models.
(§2) Experimental protocols were as follows. • (1) Bal b/c female mice aged 4-6 weeks were purchased from Beijing Weitong Lihua Laboratory Animal Co., Ltd., and the mice were raised in an SPF laboratory. The drinking water and padding were sterilized by autoclaving. All operations on mice were conducted under aseptic conditions. • (2) About 5×10^6 TEL-cKIT/T670I-BaF3, TEL-cKIT/Y823D-BaF3, TEL-cKIT/D820G-BaF3 or GIST-T1-T670I cells were respectively injected subcutaneously onto the left back of all mice on Day 0. • (3) From Day 6, for the TEL-cKIT/T670I-BaF3 mouse model the corresponding mice were administrated orally every day with methylcellulose (HKI) as the vehicle (5 mice); with Compound 1 and Compound 2 at a dosage of 10 mg/kg, 20 mg/kg, 40 mg/kg, 100 mg/kg mouse weight (5 mice in each group); and with Sunitnib (purchased from MedChemExpress, China) at a dosage of 40 mg/kg mouse weight (5 mice). From day 6, for the TEL-cKIT/Y823D-BaF3 and TEL-cKIT/D820G-BaF3 mouse models the corresponding mice were administrated orally every day with methylcellulose (HKI) as the vehicle (5 mice); with Compound 1 and Compound 2 at a dosage of 40 mg/kg, 80 mg/kg mouse weight (5 mice in each group); and with Sunitnib (purchased from MedChemExpress, China) at a dosage of 40 mg/kg mouse weight (5 mice). From day 15, for the GIST-T1-T670I mouse model the corresponding mice were administrated orally every day with methylcellulose (HKI) as the vehicle (5 mice); with Compound 1 and Compound 2 at a dosage of 20 mg/kg, 40 mg/kg, 80 mg/kg mouse weight (5 mice in each group); and with Sunitnib at a dosage of 40 mg/kg mouse weight (5 mice). • (4) From day 6 (TEL-cKIT/T670I-BaF3, TEL-cKIT/Y823D-BaF3, TEL-cKIT/D820G-BaF3 mouse model) and From day 15 (GIST-T1-T670I mouse model), respectively, the length/width of the subcutaneous tumor were measured with a vernier caliper every day and the body weight of the mouse was recorded every day so as to determine the effects of Compound 1 and Compound 2 on the body weight and tumor size of the mice, respectively. • (5) The mice were sacrificed on Day 11 after administration for the TEL-cKIT/T670I-BaF3 mouse model, on Day 9 after administration for the TEL-cKIT/Y823D-BaF3 and TEL-cKIT/D820G-BaF3 mouse models, and on Day 28 after administration for the GIST-T1-T670I mouse model. The subcutaneous tumors were taken out, and the tumors were weighed and compared. • (6) The growth trend of subcutaneous tumors was calculated and the tumor size was calculated according to: length×width×width/2 mm^3.

[2] = test system: TEL-cKIT/Y823D-BaF3 mouse tumor model; assay: Tumor-grafted mouse model established with TEL-cKIT/Y823D-BaF3 cells
Experimental: as §1, §2

[3] = test system: TEL-cKIT/D820G-BaF3 mouse tumor model; assay: Tumor-grafted mouse model established with TEL-cKIT/D820G-BaF3 cells
Experimental: as §1, §2

COc1cc2nccc(Oc3ccc(NC(=O)Cc4ccc(Cl)c(C(F)(F)F)c4)cc3)c2cc1OC [Example 2, N-(4-((6,7-dimethoxyquinolin-4-yl)oxy)phenyl)-2-(4-chloro-3-(trifluoromethyl)phenyl)-acetamide]
inhibitory effects against tumor in mice ([1]; 40 mg/kg): excellent inhibitory effects against tumor in mice
tumor inhibition rate ([1]; 40 mg/kg): ≥ 80%
influence on mice weight [1]: without significant influence on mice weight
inhibitory effects against tumor in mice ([2]; 40 mg/kg): excellent inhibitory effects against tumor in mice
tumor inhibition rate ([2]; 40 mg/kg): ≥ 80%
influence on mice weight [2]: without significant influence on mice weight
inhibitory effects against tumor in mice ([3]; 40 mg/kg): excellent inhibitory effects against tumor in mice
tumor inhibition rate ([3]; 40 mg/kg): ≥ 80%
influence on mice weight [3]: without significant influence on mice weight

COc1cc2nccc(Oc3ccc(NC(=O)Cc4ccc(C)c(C(F)(F)F)c4)cc3)c2cc1OC [Example 1, N-(4-((6,7-dimethoxyquinolin-4-yl)oxy)phenyl)-2-(4-methyl-3-(trifluoromethyl)phenyl)acetamide]
inhibitory effects against tumor in mice ([1]; 40 mg/kg): excellent inhibitory effects against tumor in mice
influence on mice weight [1]: without significant influence on mice weight
inhibitory effects against tumor in mice ([2]; 40 mg/kg): excellent inhibitory effects against tumor in mice
influence on mice weight [2]: without significant influence on mice weight
inhibitory effects against tumor in mice ([3]; 40 mg/kg): excellent inhibitory effects against tumor in mice
influence on mice weight [3]: without significant influence on mice weight
